Test systems include SF-539 CNS; CAKI-1 renal; SN12C renal; UACC-257 melanoma; SR leukemia; SK-OV-3 ovarian; DU-145 prostate; NCI-H23 lung.
What all share (assay): inhibition of tumour cell growth, NCI panel, 48 h

For nine compounds, GI50 and TGI results are on record in PubChem BioAssay (NCI).

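Method: 48-hour compound exposure of cells in 96-well plates, five concentrations, linear interpolation of endpoints. The concentration for 50% growth inhibition is given as GI50. TGI: concentration producing complete growth inhibition.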

Regarding `Nc1nc(Cl)nc2c1ncn2C1O[C@H](CO)[C@@H](O)[C@@H]1F` (stereo partly specified), the GI50 in the test on SF-539 CNS is 3.64 µM; with CAKI-1 renal, 0.326 µM; with SN12C renal, 0.0668 µM; in the test on SR leukemia, 0.387 µM; in the test on SK-OV-3 ovarian, 0.761 µM; in the test on DU-145 prostate, 0.332 µM. Moreover, the TGI in the test with SF-539 CNS was over 37.9 µM; in the test with SN12C renal, over 100 µM; in the test with UACC-257 melanoma, over 100 µM; in the test with SR leukemia it was over 100 µM; in the test on SK-OV-3 ovarian it was over 100 µM; in the test on DU-145 prostate, over 32.4 µM.
As for `COc1ccc(/C=C(/C(=O)N2CCNCC2)c2cc(OC)c(OC)c(OC)c2)cc1O`, the GI50 is 2.22 µM with SF-539 CNS; over 100 µM with CAKI-1 renal; 7.86 µM in the test on SN12C renal; 33.7 µM in the test with UACC-257 melanoma; 5.16 µM in the test on NCI-H23 lung; 0.642 µM in the test on SR leukemia. The GI50 is 4.18 µM with SK-OV-3 ovarian and 4.1 µM in the test on DU-145 prostate. For the same compound, the TGI with SF-539 CNS was 6.51 µM; in the test with CAKI-1 renal, over 100 µM; in the test with SN12C renal, over 100 µM; with UACC-257 melanoma it was over 100 µM; in the test with NCI-H23 lung, over 100 µM; in the test on SR leukemia it was over 100 µM. The TGI in the test with SK-OV-3 ovarian and in the test on DU-145 prostate was over 100 µM each time.
Turning to `CN(C)CCn1cc(-c2ccc3c(Nc4ccc(CC(=O)Nc5cccc(F)c5)cc4)ncnc3c2)cn1`, the GI50 with SF-539 CNS was 0.0918 µM; with CAKI-1 renal, 1.24 µM; with SN12C renal it was 1.53 µM; in the test with UACC-257 melanoma it was 1.84 µM; in the test with NCI-H23 lung, 1.87 µM; in the test with SR leukemia, 1.53 µM. The GI50 in the test on SK-OV-3 ovarian is over 10 µM; in the test on DU-145 prostate it was 1.67 µM. In addition, the TGI is 1.97 µM in the test with SF-539 CNS; 3.4 µM with CAKI-1 renal; 3.64 µM with SN12C renal; 5.68 µM in the test on UACC-257 melanoma; 4.98 µM in the test with NCI-H23 lung; over 10 µM in the test on SR leukemia. For the same compound, the TGI in the test with SK-OV-3 ovarian was over 10 µM; in the test with DU-145 prostate it was 3.51 µM.
On to `Cc1nc2cc(O)c(O)cc2cc1Oc1ccc(NC(=O)Nc2ccc(Cl)c(Cl)c2)cc1`, for which the GI50 with SF-539 CNS is 8.86 µM; with CAKI-1 renal it was 4.96 µM; in the test with SN12C renal, 8.97 µM; in the test on UACC-257 melanoma it was 7.27 µM; with NCI-H23 lung, 6.97 µM; in the test with SR leukemia, 1.56 µM. For the same compound, the values for the GI50 in the test on SK-OV-3 ovarian and with DU-145 prostate were 11.7 µM and 7.26 µM, respectively. In addition, the TGI amounted to 22.7 µM in the test with SF-539 CNS; 30 µM in the test with CAKI-1 renal; 30.3 µM in the test on SN12C renal; 21.4 µM in the test on UACC-257 melanoma; 19.6 µM with NCI-H23 lung; 12.3 µM with SR leukemia. Further, the TGI with SK-OV-3 ovarian was over 32.5 µM; in the test on DU-145 prostate, 25.2 µM.
With `COC(=O)c1c(-c2ccccc2)csc1NC(=O)c1c(-c2ccccc2)noc1C`, the GI50 in the test with SF-539 CNS is 0.655 µM; with CAKI-1 renal it was 0.745 µM; with SN12C renal, 4.06 µM; in the test on UACC-257 melanoma, over 82.9 µM; with NCI-H23 lung it was over 29.7 µM; in the test with SR leukemia, 0.282 µM. For the same compound, the GI50 was 3.08 µM in the test with SK-OV-3 ovarian and 1.98 µM in the test with DU-145 prostate. In addition, the TGI in the test on SF-539 CNS, with CAKI-1 renal, in the test on SN12C renal, in the test on UACC-257 melanoma, in the test with NCI-H23 lung and in the test on SR leukemia was over 100 µM each time. Moreover, the TGI in the test on SK-OV-3 ovarian and in the test with DU-145 prostate was over 100 µM each time.
On to `O=C1NC(=NCc2ccccn2)S/C1=C\c1ccc2ncccc2c1`, for which the GI50 with SF-539 CNS is 7.54 µM; with CAKI-1 renal it was 6.62 µM; in the test on SN12C renal, 10.8 µM; with UACC-257 melanoma, over 12.7 µM; in the test with NCI-H23 lung, 12.1 µM; in the test with SR leukemia, 6 µM. The figures for the GI50 in the test on SK-OV-3 ovarian and in the test on DU-145 prostate were 8.59 µM and 9.81 µM, respectively. The TGI with SF-539 CNS is over 25 µM; in the test with CAKI-1 renal, over 18.9 µM; with SN12C renal, over 25 µM; in the test with UACC-257 melanoma it was over 25 µM; in the test with NCI-H23 lung, over 25 µM; in the test with SR leukemia, 24.8 µM. Further, the TGI is over 23.5 µM with SK-OV-3 ovarian and over 25 µM in the test on DU-145 prostate.
As for `O=[N+]([O-])c1ccc2[nH]cc(-c3c4ccccc4cc4[nH]c5ccc([N+](=O)[O-])cc5c34)c2c1`, the GI50 with SF-539 CNS was 2 µM; in the test on CAKI-1 renal, 1.8 µM; with SN12C renal, 2.84 µM; in the test on UACC-257 melanoma, 2.45 µM; in the test with NCI-H23 lung it was 2.59 µM; in the test with SR leukemia, 2.86 µM. Also, the GI50 is 3.38 µM in the test with SK-OV-3 ovarian and 2.26 µM with DU-145 prostate. Also, the TGI was 4.98 µM in the test on SF-539 CNS; 3.64 µM in the test with CAKI-1 renal; 7.92 µM in the test on SN12C renal; 7.13 µM in the test on UACC-257 melanoma; 8.11 µM in the test with NCI-H23 lung; over 100 µM with SR leukemia. Further, the TGI with SK-OV-3 ovarian is 10.8 µM; with DU-145 prostate, 5.09 µM.
For `C=C1C(=O)O[C@H]2[C@H]1CC/C(COC(=O)CCC(=O)OC/C1=C/CC[C@@]3(C)O[C@H]3[C@H]3OC(=O)C(=C)[C@@H]3CC1)=C\CC[C@@]1(C)O[C@@H]21`, the GI50 in the test with SF-539 CNS was 1.95 µM; in the test on SN12C renal, 2.04 µM; with UACC-257 melanoma, 1.52 µM; in the test with NCI-H23 lung, 2.9 µM; in the test with SR leukemia, 0.345 µM; in the test on SK-OV-3 ovarian it was 23.1 µM. Also, the GI50 in the test on DU-145 prostate was 1.71 µM. In addition, the TGI was 5.58 µM in the test with SF-539 CNS; 6.63 µM with SN12C renal; 3.39 µM with UACC-257 melanoma; 11.2 µM in the test on NCI-H23 lung; 2.52 µM in the test on SR leukemia; 84.8 µM in the test with SK-OV-3 ovarian. Besides, in the test with DU-145 prostate, the TGI came out at 3.53 µM.
On to `Cc1ccc(/C=C2\CCOC2=O)cc1`, for which the GI50 in the test with SF-539 CNS, in the test with SN12C renal, with UACC-257 melanoma, in the test on NCI-H23 lung, in the test on SR leukemia and with SK-OV-3 ovarian was over 100 µM in each case. In the test on DU-145 prostate, the GI50 was over 100 µM. Also, the TGI with SF-539 CNS, with SN12C renal, with UACC-257 melanoma, with NCI-H23 lung, in the test on SR leukemia and in the test on SK-OV-3 ovarian was over 100 µM throughout. This compound also returned a TGI with DU-145 prostate of over 100 µM.
